Source: the NIST ThermoML archive (doi:10.1021/je060271a)
Several values for one entry are separate records, joined by “and”; a condition that tells them apart may be missing. Equal entries are not always repeated.

Conditions: 343.15 K, Liquid, Vibrating tube method

CCCCCCC(=O)OCC(COC(=O)CCCCCC)(COC(=O)CCCCCC)COC(=O)CCCCCC [pentaerythritol tetraheptanoate]
Conditions	mass density
4113.8 kPa	943.7 kg/m3
4138.8 kPa	943.6 kg/m3
4164 kPa	943.7 kg/m3
4194.7 kPa	943.7 kg/m3
4220.3 kPa	943.6 kg/m3
4246.6 kPa	943.7 kg/m3
4273.8 kPa	943.8 kg/m3
4305 kPa	943.9 kg/m3
4331.3 kPa	943.9 kg/m3
4358.7 kPa	944 kg/m3
4390.2 kPa	943.8 kg/m3
4413.2 kPa	943.8 kg/m3
4545.2 kPa	943.9 kg/m3
4545.5 kPa	944.1 kg/m3
4546 kPa	943.9 kg/m3
4546.2 kPa	944 kg/m3
4546.5 kPa	944 kg/m3
4547.2 kPa	944 kg/m3
4547.4 kPa	944.1 kg/m3
4547.6 kPa	944 kg/m3
4547.8 kPa	944.1 kg/m3
4547.9 kPa	944.1 kg/m3
4548.3 kPa	944 kg/m3 and 944.1 kg/m3
4548.4 kPa	944 kg/m3 and 943.9 kg/m3
4548.6 kPa	944 kg/m3
4548.8 kPa	944 kg/m3 and 944.1 kg/m3
4549 kPa	943.9 kg/m3 and 944 kg/m3
4549.1 kPa	944.2 kg/m3 and 944.1 kg/m3 and 944 kg/m3
4549.3 kPa	944 kg/m3 and 944.1 kg/m3 and 943.9 kg/m3
4549.5 kPa	944 kg/m3
4549.7 kPa	944.1 kg/m3 and 944 kg/m3
4549.8 kPa	944.1 kg/m3
4549.9 kPa	944.1 kg/m3 and 944 kg/m3
4550 kPa	944 kg/m3
4550.1 kPa	944 kg/m3 and 944.1 kg/m3
4550.2 kPa	944.1 kg/m3 and 944 kg/m3 and 943.9 kg/m3
4550.4 kPa	944 kg/m3
4550.5 kPa	944 kg/m3
4550.7 kPa	944.1 kg/m3
4550.9 kPa	944 kg/m3 and 944.2 kg/m3
4551 kPa	944 kg/m3 and 944.1 kg/m3
4551.2 kPa	944.1 kg/m3 [middle of 4 runs]
4551.4 kPa	944 kg/m3 and 944.1 kg/m3
4551.5 kPa	944 kg/m3
4551.7 kPa	944.1 kg/m3 and 944 kg/m3
4551.9 kPa	944 kg/m3 and 944.1 kg/m3
4552.1 kPa	944 kg/m3 and 944.1 kg/m3
4552.2 kPa	944.1 kg/m3 and 944 kg/m3 and 944.2 kg/m3
4552.3 kPa	944.1 kg/m3
4552.4 kPa	944 kg/m3 and 944.1 kg/m3
4552.6 kPa	944 kg/m3 and 944.1 kg/m3
4552.8 kPa	944.1 kg/m3 and 943.9 kg/m3 and 944 kg/m3
4553 kPa	944 kg/m3 and 943.9 kg/m3 and 944.1 kg/m3
4553.1 kPa	944.1 kg/m3 [middle of 4 runs]
4553.3 kPa	944 kg/m3 and 944.1 kg/m3
4553.5 kPa	944.1 kg/m3 and 944 kg/m3
4553.7 kPa	944 kg/m3 and 944.1 kg/m3
4553.8 kPa	944 kg/m3 and 944.1 kg/m3
4554 kPa	944 kg/m3 and 944.1 kg/m3
4554.2 kPa	944.1 kg/m3 and 944 kg/m3
4554.3 kPa	944 kg/m3
4554.5 kPa	944.1 kg/m3 and 944 kg/m3
4554.7 kPa	944.1 kg/m3 and 943.9 kg/m3
4554.9 kPa	944.2 kg/m3 and 944 kg/m3 and 943.9 kg/m3
4555 kPa	944 kg/m3 and 944.1 kg/m3
4555.2 kPa	944 kg/m3 and 944.1 kg/m3
4555.4 kPa	944.1 kg/m3 and 944 kg/m3 and 943.9 kg/m3
4555.5 kPa	944.2 kg/m3 and 944 kg/m3 and 944.1 kg/m3
4555.7 kPa	944 kg/m3
4555.9 kPa	944 kg/m3 and 944.1 kg/m3
4556.1 kPa	944 kg/m3
4556.2 kPa	944 kg/m3 and 944.1 kg/m3
4557.6 kPa	944 kg/m3
4559 kPa	944.1 kg/m3
4559.2 kPa	944 kg/m3 and 943.9 kg/m3
4559.3 kPa	943.9 kg/m3
4559.7 kPa	944.1 kg/m3 and 944.2 kg/m3
4559.9 kPa	944.1 kg/m3
4560 kPa	944.1 kg/m3
4560.9 kPa	944.1 kg/m3
4564.5 kPa	944 kg/m3
4567.8 kPa	944 kg/m3
4571.1 kPa	944.2 kg/m3
4574.9 kPa	944 kg/m3
4578.4 kPa	944.1 kg/m3
4581.7 kPa	944 kg/m3
4584.6 kPa	943.9 kg/m3
4588.4 kPa	944 kg/m3
4591.7 kPa	944.1 kg/m3
4595.2 kPa	944.1 kg/m3
4598.3 kPa	944.1 kg/m3
4602.3 kPa	944.1 kg/m3
4605.4 kPa	943.9 kg/m3
4608.7 kPa	944.1 kg/m3
4612.7 kPa	944.2 kg/m3
4616.3 kPa	944 kg/m3
4619.4 kPa	944.1 kg/m3
4622.7 kPa	944.1 kg/m3
4626.7 kPa	944.2 kg/m3
4630 kPa	944 kg/m3
4633.1 kPa	944.1 kg/m3
4637.3 kPa	944.2 kg/m3
4640.7 kPa	944.1 kg/m3
4644 kPa	944.1 kg/m3
4647.3 kPa	944.1 kg/m3
4651.3 kPa	944 kg/m3
4654.6 kPa	944.1 kg/m3
4658.4 kPa	944 kg/m3
4662 kPa	944.1 kg/m3
4665.5 kPa	944.2 kg/m3
4669.3 kPa	944.1 kg/m3
4672.9 kPa	944.2 kg/m3
4676.2 kPa	944.1 kg/m3
4680 kPa	944.2 kg/m3
4683.3 kPa	944.1 kg/m3
4687.3 kPa	944.1 kg/m3
4690.8 kPa	944.1 kg/m3
4693.9 kPa	944.2 kg/m3
4698.2 kPa	944.2 kg/m3
4701.7 kPa	944.1 kg/m3
4705 kPa	944.2 kg/m3
4708.9 kPa	944.2 kg/m3
4712.2 kPa	944.2 kg/m3
4715.9 kPa	944.1 kg/m3
4719.3 kPa	944.1 kg/m3
4723.7 kPa	944.1 kg/m3
4726.4 kPa	944.2 kg/m3
4730.1 kPa	944.2 kg/m3
4733.2 kPa	944.2 kg/m3
4737.5 kPa	944.3 kg/m3
4741 kPa	944.2 kg/m3
4744.3 kPa	944.2 kg/m3
4747.7 kPa	944.2 kg/m3
4752.2 kPa	944 kg/m3
4755.3 kPa	944.1 kg/m3
4759 kPa	944.1 kg/m3
4763.1 kPa	944.1 kg/m3
4766.6 kPa	944.2 kg/m3
4770.2 kPa	944.3 kg/m3
4774.2 kPa	944.2 kg/m3
4777.7 kPa	944.3 kg/m3
4781.6 kPa	944.1 kg/m3
4785.1 kPa	944.2 kg/m3
4788.7 kPa	944.4 kg/m3
4792.9 kPa	944.3 kg/m3
4796.7 kPa	944.2 kg/m3
4800 kPa	944.2 kg/m3
4804.5 kPa	944.2 kg/m3
4807.9 kPa	944.3 kg/m3
4811.2 kPa	944.2 kg/m3
4815.9 kPa	944.1 kg/m3
4819.4 kPa	944.2 kg/m3
4823.2 kPa	944.2 kg/m3
4826.8 kPa	944.3 kg/m3
4831 kPa	944.2 kg/m3
4834.6 kPa	944.2 kg/m3
4838.2 kPa	944.2 kg/m3
4842 kPa	944.1 kg/m3
4846.4 kPa	944.4 kg/m3
4849.8 kPa	944.2 kg/m3
4853.5 kPa	944.2 kg/m3
4857.8 kPa	944.3 kg/m3
4861.9 kPa	944.3 kg/m3
4865.4 kPa	944.3 kg/m3
4869.2 kPa	944.3 kg/m3
4872.8 kPa	944.2 kg/m3
4877.3 kPa	944.3 kg/m3
4881 kPa	944.3 kg/m3
4884.8 kPa	944.3 kg/m3
4889.1 kPa	944.2 kg/m3
4892.9 kPa	944.2 kg/m3
4896.6 kPa	944.3 kg/m3
4901.2 kPa	944.3 kg/m3
4905 kPa	944.3 kg/m3
4908.5 kPa	944.2 kg/m3
4913 kPa	944.2 kg/m3
4916.8 kPa	944.3 kg/m3
4920.4 kPa	944.2 kg/m3
4924.1 kPa	944.3 kg/m3
4928.6 kPa	944.4 kg/m3
4932.2 kPa	944.4 kg/m3
4936 kPa	944.3 kg/m3
4940.7 kPa	944.3 kg/m3
4944.5 kPa	944.3 kg/m3
4948.5 kPa	944.4 kg/m3
4952.3 kPa	944.3 kg/m3
4956.8 kPa	944.4 kg/m3
4960.4 kPa	944.2 kg/m3
4964.6 kPa	944.3 kg/m3
4968.4 kPa	944.3 kg/m3
4972.4 kPa	944.2 kg/m3
4977 kPa	944.2 kg/m3
4980.7 kPa	944.5 kg/m3
4985.5 kPa	944.4 kg/m3
4989.3 kPa	944.4 kg/m3
4993.1 kPa	944.3 kg/m3
4996.9 kPa	944.4 kg/m3
5001.4 kPa	944.3 kg/m3
5005.4 kPa	944.4 kg/m3
5009.1 kPa	944.3 kg/m3
5014.1 kPa	944.4 kg/m3
5018.1 kPa	944.4 kg/m3
5022 kPa	944.4 kg/m3
5027 kPa	944.4 kg/m3
5030.1 kPa	944.4 kg/m3
5035.7 kPa	944.4 kg/m3
5043.5 kPa	944.3 kg/m3
5047.3 kPa	944.4 kg/m3
5051.4 kPa	944.4 kg/m3
5054.7 kPa	944.3 kg/m3
5058.5 kPa	944.5 kg/m3
5065.1 kPa	944.5 kg/m3
5069.1 kPa	944.4 kg/m3
5072.9 kPa	944.4 kg/m3
5077 kPa	944.4 kg/m3
5080.4 kPa	944.4 kg/m3
5085.2 kPa	944.4 kg/m3
5089.2 kPa	944.5 kg/m3
5093.4 kPa	944.5 kg/m3
5098.2 kPa	944.4 kg/m3
5102.2 kPa	944.3 kg/m3
5105.8 kPa	944.4 kg/m3
5109.6 kPa	944.5 kg/m3
